The structures appear in SMILES notation. pIC50: −log10 of the molar value.

T1 sequence (P19156 2-1034 limits assumed): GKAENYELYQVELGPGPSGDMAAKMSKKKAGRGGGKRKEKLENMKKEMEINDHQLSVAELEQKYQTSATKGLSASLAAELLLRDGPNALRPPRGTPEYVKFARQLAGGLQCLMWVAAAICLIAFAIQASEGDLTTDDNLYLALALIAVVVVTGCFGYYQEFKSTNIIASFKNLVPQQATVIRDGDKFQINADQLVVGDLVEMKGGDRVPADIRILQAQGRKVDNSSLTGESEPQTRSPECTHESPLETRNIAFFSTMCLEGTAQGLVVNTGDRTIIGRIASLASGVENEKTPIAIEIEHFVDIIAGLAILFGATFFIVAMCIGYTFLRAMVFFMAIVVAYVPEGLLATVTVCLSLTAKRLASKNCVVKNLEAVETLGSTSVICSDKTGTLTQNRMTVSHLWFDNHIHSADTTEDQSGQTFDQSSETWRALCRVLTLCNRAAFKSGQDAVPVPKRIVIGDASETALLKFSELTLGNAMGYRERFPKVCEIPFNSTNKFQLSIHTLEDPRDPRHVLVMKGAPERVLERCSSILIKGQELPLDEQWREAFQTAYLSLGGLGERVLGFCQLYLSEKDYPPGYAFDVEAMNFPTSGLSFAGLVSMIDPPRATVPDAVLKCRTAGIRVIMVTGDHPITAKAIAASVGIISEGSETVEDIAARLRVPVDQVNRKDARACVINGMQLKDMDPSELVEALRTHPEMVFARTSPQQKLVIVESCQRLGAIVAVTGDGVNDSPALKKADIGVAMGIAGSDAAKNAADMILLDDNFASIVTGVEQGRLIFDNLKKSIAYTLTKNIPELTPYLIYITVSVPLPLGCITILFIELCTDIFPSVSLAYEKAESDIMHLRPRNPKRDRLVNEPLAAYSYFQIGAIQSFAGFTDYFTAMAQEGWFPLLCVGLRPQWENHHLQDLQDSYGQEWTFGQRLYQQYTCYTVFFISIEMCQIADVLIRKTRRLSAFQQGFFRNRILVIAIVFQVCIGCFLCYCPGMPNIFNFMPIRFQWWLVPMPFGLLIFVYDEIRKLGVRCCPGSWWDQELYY
T1 sequence (P18434 whole entry partner): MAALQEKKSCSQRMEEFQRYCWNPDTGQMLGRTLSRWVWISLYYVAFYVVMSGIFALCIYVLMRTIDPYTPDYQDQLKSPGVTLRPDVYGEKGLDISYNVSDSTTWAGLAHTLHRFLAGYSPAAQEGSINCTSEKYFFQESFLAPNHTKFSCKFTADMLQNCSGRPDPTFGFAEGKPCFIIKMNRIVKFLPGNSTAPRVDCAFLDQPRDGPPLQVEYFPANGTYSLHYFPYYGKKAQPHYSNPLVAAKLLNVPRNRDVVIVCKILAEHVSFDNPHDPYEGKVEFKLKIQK

The assay has as its target T1, H+/K+-ATPase (Sus scrofa, UniProt P19156).
T1 construct: reaction buffer solution (60 mmol/l Tris-HCl buffer solution, pH 7.4) containing hog gastric vesicle; from tissue; host or cells: hog stomach (gastric vesicles, by centrifugation after Rabon et al. 1988)
As to the kind of experiment: Inhibition of proton pump (H+/K+-ATPase) activity in hog gastric vesicles. In kind it is biochemical. The note with it: K+ specific H+/K+-ATPase activity, pH 7.4, 37° C. for 40 minutes, malachite green. On the procedure: 1) Preparation of Gastric Vesicles
Gastric vesicles were prepared from hog stomach by centrifugation (Edd C. Rabon et al., Preparation of Gastric H^+,K^+-ATPase, Methods in enzymology, vol. 157 Academic Press Inc., (1988), pp. 649-654). The protein contents of the prepared gastric vesicles were quantified with a Bicinchoninic Acid (BCA) kit.
2) Measurement of Effect of Inhibiting Proton Pump (H^+/K^+-ATPase) Activity
The effect of inhibiting proton pump activity by the compound of the present invention was measured in a 96-well plate. In this experiment, K^+ specific H^+/K^+-ATPase activity was calculated based on the difference between H^+/K^+-ATPase activity in the presence of K^+ ions and H^+/K^+-ATPase activity in the absence of K^+ ions. In the 96-well plate, to negative and positive control groups, 0.5% dimethylsulfoxide (DMSO) in buffer was added, and to the test groups, the compound of the present invention was added. All the analyses were conducted at room temperature with the reaction volume of 100 μl. To a reaction buffer solution (60 mmol/l Tris-HCl buffer solution, pH 7.4) containing hog gastric vesicle, DMSO and each concentration of compound were added, and then, 10 μl of a 10 mmol/l adenosine triphosphate tris buffer solution (60 mmol/l Tris-HCl buffer solution, pH 7.4) was added to initiate an enzyme reaction. The enzyme reaction was conducted at 37° C. for 40 minutes, 50 μl of a malachite green solution (0.12% malachite green solution, 5.8% ammonium molybdate and 11% tween 20 were mixed at a ratio of 100:67:2 in 6.2 N sulfuric acid) was added to stop the reaction, and 50 μl of 15.1% sodium citrate was added. During the reaction, the amount of monophosphate (Pi) was measured at 570 nm using micro plate reader (FLUOstar Omega, BMG Company). Inhibition rate (%) was measured from the activity values of the control groups and the activity values of various concentrations of the test compound, and IC50 of the test compound was calculated from each % inhibition value of the compound using Logistic 4-parameter function of Sigmaplot 8.0 program.
A word on the pIC50: it is −log10 of the IC50, conventionally taken in molar units. A high value points to a small IC50. In turn, `CNC1CCc2c1cn(S(=O)(=O)c1cc(Cl)ccc1Cl)c2-c1cc(Cl)ccc1Cl` (stereo not drawn) [Example 73, 1-(2,5-dichlorophenyl)-2-((2,5-dichlorophenyl)sulfonyl)-N-methyl-2,4,5,6-tetrahydrocyclopenta[c]pyrrol-4-amine] showed a pIC50 of 6.17.

The molecule `CNC1CCc2c1cn(S(=O)(=O)c1cccc(Cl)c1)c2-c1ccncc1` (stereo not drawn) [Example 42, 2-((3-chlorophenyl)sulfonyl)-N-methyl-1-(pyridin-4-yl)-2,4,5,6-tetrahydrocyclopenta[c]pyrrol-4-amine] showed a negative-log IC50 (pIC50) of 5.27. The same measure for `CNC1CC(C)(C)c2c1cn(S(=O)(=O)c1cccnc1)c2-c1ccccc1F` (stereo not drawn) [Example 105, 1-(2-fluorophenyl)-N,6,6-trimethyl-2-(pyridin-3-ylsulfonyl)-2,4,5,6-tetrahydrocyclopenta[c]pyrrol-4-amine]: 5.07; for `CNC1CCc2c1cn(S(=O)(=O)c1cccc(Cl)c1)c2-c1ccccc1` (stereo not drawn) [Example 3, 2-((3-chlorophenyl)sulfonyl)-N-methyl-1-phenyl-2,4,5,6-tetrahydrocyclopenta[c]pyrrol-4-amine]: 6.35.

In the case of `CNC1CCc2c1cn(S(=O)(=O)c1cccc(Cl)c1)c2-c1ccc(C)cc1F` (stereo not drawn) [Example 18, 2-((3-chlorophenyl)sulfonyl)-1-(2-fluoro-4-methylphenyl)-N-methyl-2,4,5,6-tetrahydrocyclopenta[c]pyrrol-4-amine], the pIC50 is 6.37.

`CNC1CCCc2c1cn(S(=O)(=O)c1cccc(C(F)(F)F)c1)c2-c1ccccc1F` (stereo not drawn) [Example 124, 1-(2-fluorophenyl)-N-methyl-2-((3-(trifluoromethyl)phenyl)sulfonyl)-4,5,6,7-tetrahydro-2H-isoindole-4-amine] gave a negative-log IC50 (pIC50) of 5.38.

The molecule `CNC1CCCc2c1cn(S(=O)(=O)c1cccc(C)c1)c2-c1ccccc1F` (stereo not drawn) [Example 121, 1-(2-fluorophenyl)-N-methyl-2-(m-tolylsulfonyl)-4,5,6,7-tetrahydro-2H-isoindole-4-amine] had a pIC50 of 5.82. The same measure for `CNC1CCc2c1cn(S(=O)(=O)c1cccc(Cl)c1)c2-c1cc(Cl)cc(Cl)c1` (stereo not drawn) [Example 25, 2-((3-chlorophenyl)sulfonyl)-1-(3,5-dichlorophenyl)-N-methyl-2,4,5,6-tetrahydrocyclopenta[c]pyrrol-4-amine]: 6.10. The same measure for `CNC1CCCc2c1cn(S(=O)(=O)c1cccc(Cl)c1)c2-c1cncnc1` (stereo not drawn) [Example 129, 2-((3-chlorophenyl)sulfonyl)-N-methyl-1-(pyrimidin-5-yl)-4,5,6,7-tetrahydro-2H-isoindole-4-amine]: 4.40. The result for `CNC1CCc2c1cn(S(=O)(=O)c1cc(Cl)c(Cl)cc1Cl)c2-c1ccccc1` (stereo not drawn) [Example 81, N-methyl-1-phenyl-2-((2,4,5-trichlorophenyl)sulfonyl)-2,4,5,6-tetrahydrocyclopenta[c]pyrrol-4-amine] reads 5.94; that for `CN(C)c1cccc(S(=O)(=O)n2cc3c(c2-c2ccccc2F)CCCC3N(C)C)c1` (stereo not drawn) [Example 143, 2-((3-(dimethylamino)phenyl)sulfonyl)-1-(2-fluorophenyl)-N,N-dimethyl-4,5,6,7-tetrahydro-2H-isoindole-4-amine], 5.30. For the molecule `CNC1CCc2c1cn(S(=O)(=O)c1ccc(F)cc1F)c2-c1ccccc1F` (stereo not drawn) [Example 65, 2-((2,4-difluorophenyl)sulfonyl)-1-(2-fluorophenyl)-N-methyl-2,4,5,6-tetrahydrocyclopenta[c]pyrrol-4-amine], the pIC50 is 6.03. As for `CNC1CCc2c1cn(S(=O)(=O)c1cccc(C)c1)c2-c1cc(Cl)ccc1Cl` (stereo not drawn) [Example 53, 1-(2,5-dichlorophenyl)-N-methyl-2-(m-tolylsulfonyl)-2,4,5,6-tetrahydrocyclopenta[c]pyrrol-4-amine], the negative-log IC50 (pIC50) is 6.11. The result for `CNC1CCc2c1cn(S(=O)(=O)c1cccc(Cl)c1)c2-c1cccc(Cl)n1` (stereo not drawn) [Example 36, 2-((3-chlorophenyl)sulfonyl)-1-(6-chloropyridin-2-yl)-N-methyl-2,4,5,6-tetrahydrocyclopenta[c]pyrrol-4-amine] reads 5.60.

Molecule `CN(C)C1CCCc2c1cn(S(=O)(=O)c1cccc(OC(F)F)c1)c2-c1ccccc1F` (stereo not drawn) [Example 142, 2-((3-(difluoromethoxy)phenyl)sulfonyl)-1-(2-fluorophenyl)-N,N-dimethyl-4,5,6,7-tetrahydro-2H-isoindole-4-amine] showed a pIC50 of 5.10. Turning to `CNC1CC(C)(C)c2c1cn(S(=O)(=O)c1cccc(Cl)c1)c2-c1ccccc1F` (stereo not drawn) [Example 106, 2-((3-chlorophenyl)sulfonyl)-1-(2-fluorophenyl)-N,6,6-trimethyl-2,4,5,6-tetrahydrocyclopenta[c]pyrrol-4-amine], the negative-log IC50 (pIC50) was 5.48. As to `CNC1CCc2c1cn(S(=O)(=O)c1ccc(-c3ccccc3)cc1)c2-c1ccccc1F` (stereo not drawn) [Example 62, 2-([1,1′-biphenyl]-4-ylsulfonyl)-1-(2-fluorophenyl)-N-methyl-2,4,5,6-tetrahydrocyclopenta[c]pyrrol-4-amine], the negative-log IC50 (pIC50) was 5.06. The same measure for `CNC1CCc2c1cn(S(=O)(=O)c1cnc3c(c1)c(C)nn3C)c2-c1ccccc1F` (stereo not drawn) [Example 102, 2-((1,3-dimethyl-1H-pyrazolo[3,4-b]pyridin-5-yl)sulfonyl)-1-(2-fluorophenyl)-N-methyl-2,4,5,6-tetrahydrocyclopenta[c]pyrrol-4-amine]: 5.00. The result for `CNC1CCc2c1cn(S(=O)(=O)c1ccccc1)c2-c1cc(Cl)ccc1Cl` (stereo not drawn) [Example 45, 1-(2,5-dichlorophenyl)-N-methyl-2-(phenylsulfonyl)-2,4,5,6-tetrahydrocyclopenta[c]pyrrol-4-amine] reads 6.26; that for `CNC1CCc2c1cn(S(=O)(=O)c1ccccc1Cl)c2-c1ccc(F)cc1C` (stereo not drawn) [Example 49, 2-((2-chlorophenyl)sulfonyl)-1-(4-fluoro-2-methylphenyl)-N-methyl-2,4,5,6-tetrahydrocyclopenta[c]pyrrol-4-amine], 5.66. The same measure for `CNC1CCc2c1cn(S(=O)(=O)c1cccc(Cl)c1)c2-c1cccc(C)c1` (stereo not drawn) [Example 8, 2-((3-chlorophenyl)sulfonyl)-N-methyl-1-(m-tolyl)-2,4,5,6-tetrahydrocyclopenta[c]pyrrol-4-amine]: 6.12. `CNC1CCc2c1cn(Cc1cccc(F)c1)c2-c1ccccc1F` (stereo not drawn) [Example 108, 2-(3-fluorobenzyl)-1-(2-fluorophenyl)-N-methyl-2,4,5,6-tetrahydrocyclopenta[c]pyrrol-4-amine] had a negative logarithm of the IC50 (pIC50) of 5.25. Against the preceding molecule, the pIC50 is 0.87 log units lower. `CNC1CCc2c1cn(S(=O)(=O)c1cccc(Cl)c1)c2-c1ccc(C(F)(F)F)nc1` (stereo not drawn) [Example 39] gave a negative logarithm of the IC50 (pIC50) of 5.60.

The molecule `CNC1CCCc2c1cn(S(=O)(=O)c1cccc(OC(F)F)c1)c2-c1ccccc1F` (stereo not drawn) [Example 123, 2-((3-(difluoromethoxy)phenyl)sulfonyl)-1-(2-fluorophenyl)-N-methyl-4,5,6,7-tetrahydro-2H-isoindole-4-amine] showed a negative logarithm of the IC50 (pIC50) of 5.70. In turn, `CNC1CCc2c1cn(S(=O)(=O)c1ccc(C#N)cc1Cl)c2-c1ccccc1F` (stereo not drawn) [Example 67, 3-chloro-4-((1-(2-fluorophenyl)-4-(methylamino)-5,6-dihydrocyclopenta[c]pyrrol-2(4H)-yl)sulfonyl)benzonitrile] showed a pIC50 of 5.90. The result for `CNC1CCc2c1cn(S(=O)(=O)c1cc(Cl)ccc1Cl)c2-c1ccc(C)cc1F` (stereo not drawn) [Example 72, 2-((2,5-dichlorophenyl)sulfonyl)-1-(2-fluoro-4-methylphenyl)-N-methyl-2,4,5,6-tetrahydrocyclopenta[c]pyrrol-4-amine] reads 6.32; that for `CNC1CCCCc2c1cn(S(=O)(=O)c1cccc(Cl)c1)c2-c1ccccc1F` (stereo not drawn) [Example 145, 2-((3-chlorophenyl)sulfonyl)-1-(2-fluorophenyl)-N-methyl-2,4,5,6,7,8-hexahydrocyclohepta[c]pyrrol-4-amine], 5.66. The result for `CNC1CCc2c1cn(S(=O)(=O)c1ccccc1)c2-c1ccccc1F` (stereo not drawn) [Example 43, 1-(2-fluorophenyl)-N-methyl-2-(phenylsulfonyl)-2,4,5,6-tetrahydrocyclopenta[c]pyrrol-4-amine] reads 6.37; that for `CNC1CCc2c1cn(S(=O)(=O)c1cc(Cl)c(Cl)cc1Cl)c2-c1ccccc1F` (stereo not drawn) [Example 84, 1-(2-fluorophenyl)-N-methyl-2-((2,4,5-trichlorophenyl)sulfonyl)-2,4,5,6-tetrahydrocyclopenta[c]pyrrol-4-amine], 6.41; that for `CNC1CCc2c1cn(S(=O)(=O)c1ccc(C)cc1)c2-c1ccccc1F` (stereo not drawn) [Example 59, 1-(2-fluorophenyl)-N-methyl-2-tosyl-2,4,5,6-tetrahydrocyclopenta[c]pyrrol-4-amine], 6.00.

These data come from patent US10039747B2, “Tetrahydrocyclopentapyrrole derivatives and a method for preparing the same” (Daewoong Pharmaceutical Co., Ltd., priority 2013, dated 2018).
